Values joined by “and” are separate entries in the source; they are usually repeats but may differ in a detail not shown here. Identical values can stand only once. Marks after values point to notes of the source that are not given here.

Consider two molecules from patent US20250146011A1, “HERBICIDE-RESISTANT CAMELINA SATIVA PLANTS, AND VARIANT CAMELINA ACETOHYDROXYACID SYNTHASE POLYPEPTIDES” (Smart Earth Camelina Corp., priority 2019, published 2025).

In assay [1] the test system is 10CS0048 (MIDAS). The experiment in a line: Phenotype scoring (R/S) after thifensulfuron-methyl 2.5 g ai/ha. It counts as in vivo, Camelina sativa. As to conditions: 7 d after application. An excerpt:
(§1) At a thifensulfuron-methyl application rate of 2.5 g ai/ha, plants from parental, F2, BC1F1, and BC4F2 populations could easily be scored into one of two discrete phenotypic classes (R, resistant or S, susceptible) 7 d after herbicide application.

The test system of assay [2] is 12CS0365. The description is as above. It counts as in vivo, Camelina sativa. The conditions noted are these: 7 d after application.
From the text: as §1

The test system of assay [3] is 12CS0366. Described as above. It counts as in vivo, Camelina sativa. As to conditions: 7 d after application.
From the text: as §1

In assay [4] the test system is 13CS0786. The assay is described as above. As to conditions: 7 d after application. The assay is classed as in vivo, Camelina sativa.
From the text: as §1

In assay [5] the test system is SRS 934. The assay is described as above. It counts as in vivo, Camelina sativa. As to conditions: 7 d after application.
From the text: as §1

Assay [6] concerns segregating camelina populations. The experiment in a line: Segregation of resistance to thifensulfuron-methyl in F2, BC1F1 and BC4F2 populations. It counts as in vivo, Camelina sativa. As to conditions: 2.5 g ai/ha, 7 d.
From the text: From each cross combination, randomly selected F1 plants were selfed for the development of F2 populations segregating for 1 resistance gene.
Further, mutant lines 12CS0365 and 12CS0366 were crossed with each other and a randomly selected F1 plant selfed for the development of an F2 population segregating for 2 independent resistance genes. F4 progeny of F2 plants homozygous for both resistance genes (13CS0786) was backcrossed to 10CS0048 to form a backcross (BC1F1) population. Further backcrossing to the recurrent parent 10CS0048 was conducted until stabilization of the trait in the BC4F3 generation (homozygous for 2 resistance genes).
as §1
Assuming inheritance in a Mendelian manner, the expected genotypic segregation ratio in an F2 population segregating for a single resistance gene would be 1(RR): 2(Rr): 1(rr), or 3(RR, Rr): 1(rr).
If two unlinked genes for resistance are segregating in an F2 population, the expected genotypic segregation ratio would be 9 (R1-R2-): 2 (R1r1r2r2): 2 (r1r1R2r2): 1 (R1R1r2r2): 1 (r1r1R2R2): 1 (r1r1r2r2), or 15 (R1-R2-, R1r1r2r2, r1r1R2r2, R1R1r2r2, r1r1R2R2): 1 (r1r1r2r2). The expected genotypes in the BC1F1 population would be R1r1R2r2, R1r1r2r2, r1r1R2r2, and r1r1r2r2, each produced in equal frequency, resulting in a segregation ratio of 1 (R1r1R2r2): 2 (R1r1r2r2, r1r1R2r2): 1 (r1r1r2r2), or 3 (R1r1R2r2, R1r1r2r2, r1r1R2r2): 1 (r1r1r2r2). The expected segregation ratio in the BC4F2 generation would be the same as that observed in the F2 population.
The F2 population resulting from the reciprocal cross of 10CS0048 with 12CS0365 and 12CS0366, respectively, the F2 population resulting from the cross 12CS0365/12CS0366 and the BC1F1 and BC4F2 populations resulting from the cross of F4 plants homozygous for 2 resistance genes (13CS0786) with recurrent parent 10CS0048, gave good fit to the expected segregation ratios (Table 7).

The subject of assay [7] is SRS 934. The experiment in a line: Greenhouse dose-response to thifensulfuron-methyl (height, biomass). The assay is classed as in vivo, Camelina sativa. As to conditions: 21 days after application, rates 0 to 525 g ai/ha, n = 16.
Assay [8] deals with 12CS0365. The description is as above. The assay is classed as in vivo, Camelina sativa. As to conditions: 21 days after application, rates 0 to 525 g ai/ha, n = 16.
The test system of assay [9] is 12CS0366. The description is as above. It counts as in vivo, Camelina sativa. As to conditions: 21 days after application, rates 0 to 525 g ai/ha, n = 16.
The subject of assay [10] is 13CS0786. The assay is described as above. It counts as in vivo, Camelina sativa. As to conditions: 21 days after application, rates 0 to 525 g ai/ha, n = 16.
The test system of assay [11] is AHAS of 14CS0851-01-14. Nature of the assay: AHAS product feedback inhibition assay. It counts as biochemical, Camelina sativa. As to conditions: for Absorbance reading (530 nm), raw data: single reps. The procedure: (§2) Briefly, for each of the three comparators, leaf and stem (petiole) material was bulk-harvested at the 3-4 leaf stage from at least 30 plantlets, snap-frozen in liquid nitrogen, and stored at −80° C. The AHAS in vitro assay was conducted according to the method of Singh et al (1988), with modifications by Yu (2010) and Rustgi (2014). For each comparator, 4 grams of frozen material were ground to a fine powder with a mortar and pestle in liquid nitrogen and homogenized in 1 volume of cold extraction buffer containing 100 mM potassium phosphate buffer (pH7.5), 10 mM sodium pyruvate, 5 mM MgCl2, 100 μM flavin adenine dinucleotide (FAD), and 10% glycerol. Four 2-mL microcentrifuge tubes were used for each comparator. The homogenate was centrifuged at 13,000 rpm for 10 min at 4° C., supernatant collected and re-centrifuged for an additional 10 minutes under the same conditions. For each tube, 1 mL of supernatant was pipetted into a new 2-mL microcentrifuge tube, and protein was precipitated by the addition of 1 mL of saturated ammonium sulfate. The solution was mixed well by vortex and allowed to stand on ice for 20 minutes, then centrifuged at 13,000 rpm at 4° C. The protein pellet was resuspended in 300 μL of reaction buffer containing 50 mM potassium phosphate buffer (pH7.5), 100 mM sodium pyruvate, 10 mM MgCl2, 1 mM EDTA, 10 μM FAD, 100 mM NaCl, and 1 mM thiamine pyrophosphate. Tubes of each comparator were combined, mixed well, kept on ice and immediately used in the AHAS activity and feedback inhibition assays.
(§3) Total protein concentration of the crude extract was determined by the Bradford method (Bradford, 1976). All assays were conducted using 300 μg of total protein each.
(§4) […] (2010). The reaction mixture contained 50 μL enzyme extract and 50 μL 100 mM sodium pyruvate and inhibitor amino acid. The reaction was incubated at 37° C. for 60 minutes, then stopped and acetolactate converted to acetoin with the addition of 20 μL of 6 N H2SO4 and incubated at 60° C. for 15 minutes. A separate background “blank” was included for each sample group by adding 20 μL of 6 N H2SO4 prior to the addition of the enzyme extracts. Then, 95 μL of 0.55% w/v creatine solution and 95 μL of α-naphthol solution (5.5% w/v in 5 N NaOH) were added and the mixture incubated at 60° C. for a further 15 minutes. After cooling to room temperature for 15 minutes, enzyme activity was determined colorimetrically by reading the absorbance at 530 nm. Three independent experiments were conducted. Experiment 1 and 2 each contained 2 technical replicates, while experiment 3 included 3 technical replicates.

Assay [12] concerns AHAS of MIDAS. The experiment in a line: AHAS product feedback inhibition assay. The assay is classed as biochemical, Camelina sativa. As to conditions: 10 mM amino acid; for Absorbance reading (530 nm), raw data: single reps. The procedure: as §2, §3, §4
The test system of assay [13] is AHAS of SRS 934. The experiment in a line: AHAS product feedback inhibition assay. The assay is classed as biochemical, Camelina sativa. As to conditions: 10 mM amino acid; for Absorbance reading (530 nm), raw data: single reps. As for the experimental part: as §2, §3, §4
Setting [14] is: F2 of 12CS0365 × 10CS0048 (reciprocal).
The mark [15] stands for this setting: F2 of 12CS0366 × 10CS0048 (reciprocal).

On to `COC(=O)c1sccc1S(=O)(=O)NC(=O)Nc1nc(C)nc(OC)n1` [thifensulfuron-methyl], for which the “phenotype after herbicide application” value in [1] was “either killed or greatly damaged”; in assay [2] it was “resistant phenotype”; in assay [3], “resistant phenotype”; in [4], “resistant phenotype”; in [5] it was “either killed or greatly damaged”. Also, the “Resistant (R), number of plants” value was 27 (27)^ in assay [6] (BC1F1 of 10CS0048 × 13CS0786); 147 (147.2) in [6] (BC4F2 of 10CS0048 × 13CS0786); 555 (568)^‡ in assay [6] (setting [14]); 307 (306.6) in assay [6] (F2 of 12CS0365 × 12CS0366); 549 (540)^ in [6] (setting [15]). The “Susceptible (S), number of plants” value in assay [6] (BC1F1 of 10CS0048 × 13CS0786) was 9 (9); in assay [6] (BC4F2 of 10CS0048 × 13CS0786), 10 (9.8); in [6] (setting [14]), 202 (189); in assay [6] (F2 of 12CS0365 × 12CS0366), 20 (20.4); in assay [6] (setting [15]), 171 (180). The ED50 biomass in [7] turned out to be 0.09 g ai/ha; in assay [8] it was 0.69 g ai/ha; in assay [9] it was 8.67 g ai/ha; in [10], 89.61 g ai/ha. Also, the ED50 height in assay [7] is 0.14 g ai/ha; in [8] it was 1.81 g ai/ha; in [9] it was 5.25 g ai/ha; in assay [10], 26.36 g ai/ha.
Consider `CC(C)[C@H](N)C(=O)O` [valine], for which the “sensitivity of AHAS to feedback inhibition, comparison of enzyme extracts” value in [11] (14CS0851-01-14 vs SRS 934 and MIDAS, 1 mM, 10 mM, 100 mM amino acid) was “no significant difference”. Besides, the “Absorbance reading (530 nm), AVG of reps” value is 0.178 in [11] (Experiment 2, 10 mM amino acid); 0.073 in [11] (Experiment 3, 10 mM amino acid); 0.214 in [12] (Experiment 1); 0.191 in assay [12] (Experiment 2); 0.112 in [12] (Experiment 3); 0.184 in assay [13] (Experiment 1). Also, the figures for the “Absorbance reading (530 nm), AVG of reps” value in assay [13] (Experiment 2) and in assay [13] (Experiment 3) were 0.179 and 0.093, respectively. The “Absorbance reading (530 nm), raw data” value was 0.190 in [11] (Experiment 2, 10 mM amino acid); 0.333 in assay [11] (Experiment 2, 100 mM amino acid); 0.057 and 0.084 in assay [11] (Experiment 3, 10 mM amino acid); 0.205 and 0.223 in assay [12] (Experiment 1); 0.217 in assay [12] (Experiment 2); 0.165 in assay [12] (Experiment 2, listed as Valine). The “Absorbance reading (530 nm), raw data” value was 0.133 and 0.110 and 0.112 in [12] (Experiment 3); 0.186 and 0.182 in assay [13] (Experiment 1); 0.206 and 0.151 in assay [13] (Experiment 2, listed as Valine); 0.091 in assay [13] (Experiment 3).
